{"source": "patent US9708628B2", "about": "“Cationic lipid having improved intracellular kinetics” (NOF CORPORATION, priority 2011, dated 2017)", "key": {"[1]": {"tested_on": "HT1080 cells", "experiment": "Endosomal escape efficiency (rhodamine-pDNA, Lysotracker Green, 6 hr)", "assay_type": "cell-based", "settings": "6 hr after transfection", "protocol": "For MEND preparation, the Rhodamine-labeled pDNA prepared by the method of [Experimental Example 1] (4) was used. When MEND encapsulating rhodamine-labeled pDNA was prepared, 50% of the pDNA solution described in [Experimental Example 1] (1) was replaced by rhodamine-labeled pDNA.\n(§1) MENDs having a composition of B-2-4 (Example 4):DOPE:Chol=3:3:4, B-2 (Example 1):SOPE:Chol=5:3:2 were prepared by the method described in [Experimental Example 1] (2). For the preparation, PEG2000-DMG was used as PEG lipid, and MEND solutions corresponding to 0.55 mM of the lipid concentration were prepared.\n(§2) HT1080 cells were plated on a glass bottom dish at 5×10^4 cells/2 mL/dish 24 hr before. MEND was diluted with DMEM (FBS 10%+) to achieve pDNA 1.6 μg/2 mL and transfected into cells. After 5.5 hr, Lysotracker Green (Life technologies) was added at 2 μL/dish. 6 hr after the transfection, the cells were washed twice with heparin (20 units/mL, 2 mL), Krebs buffer (1 mL) was added, and the cells were observed by a confocal laser scan microscope.\nRhodamine-labeled pDNA, endosome/lysosome and nucleus were shown in pseudo colors of red, green and blue, respectively. The endosomal escape efficiency was calculated according to the following formula."}, "[2]": {"tested_on": "HT1080 cells", "experiment": "Time-course evaluation of gene expression using Kronos Dio (luciferase, RLU/2 min)", "assay_type": "cell-based", "settings": "pDNA 1.6 μg/2 mL/dish", "protocol": "(§3) MENDs of B-2-4 (Example 4), B-2 (Example 1) were prepared according to [Experimental Example 1] (1), (2), and [Experimental Example 18]. For the preparation, PEG2000-DMG was used as PEG lipid, and MEND solutions corresponding to 0.55 mM of the lipid concentration were prepared. For cationic MEND, lipids having a composition of DOTAP (Comparative Example 3):DOPE:Chol:=3:4:3 were used, and the cationic MEND was prepared according to the method described in [Experimental Example 1] (3).\nHT1080 cells were plated on a 3.5 cm cell culture dish at 4×10^4 cells/2 mL/dish 24 hr before, various MENDs were diluted with DMEM (FES 10%+, Phenol red free) containing a final concentration of 200 μM of D-luciferin potassium to achieve 1.6 μg/2 mL/dish based on the pDNA amount and transfection was performed. According to the Kronos Dio package insert, the luminescence amount was measured for 2 min every 20 min and taken as the luciferase activity (RLU/2 min)."}, "[3]": {"tested_on": "HT1080 cells", "experiment": "Time-course of intracellular uptake amount of MEND (Cy5-labeled pDNA, FACS)", "assay_type": "cell-based", "settings": "pDNA 1.6 μg/2 mL/well; 1, 3, 6 hr", "protocol": "as §3, with “(2),” for “(2), and”, “15].” for “18].”, “(3). pDNA was labeled with fluorescence according to the method described in [Experimental Example 15] (2).” for “(3).”\nHT1080 cells were plated on a 6-well plate at 2×10^5 cells/2 mL/well 24 hr before, various sample MENDs were diluted with DMEM (FBS+) to a pDNA concentration of 1.6 μg/2 mL/well and transfected into the well. After 1, 3, 6 hr, MEND-containing DMEM was removed, and the cells were washed twice with heparin (20 units/mL, 1 mL), and further once with PBS(−) (1 mL). 0.05% Trypsin solution (500 μL) was added, and the cells were stood in an incubator at 37° C. for 3 min. DMEM (FBS+) (1 mL) was added and the mixture was centrifuged (700 g, 4° C., 5 min). The supernatant was removed and the cells were suspended in FACS buffer (1 mL). […] The suspension was passed through a 44 μm nylon mesh immediately before the measurement, and the fluorescence intensity of intracellular Cy5 was measured."}, "[4]": {"tested_on": "HT1080 cells", "experiment": "Evaluation of endosome amount (Lysotracker Green)", "assay_type": "cell-based", "settings": "6 hr after transfection", "protocol": "as §1\nas §2, with “into the” for “into”, “cells. The cells without transfection of MEND were used as a control.” for “cells.”, “μL/dish and Hoechst 33342 (Dojindo) was further added at 2 μL/dish 30 min later.” for “μL/dish.”\nEndosome/lysosome and nucleus were shown in pseudo colors of green and blue, respectively. The relative endosome amount was calculated according to the following formula."}, "[5]": {"tested_on": "IL-12p70", "experiment": "Cytokine production by MEND administration, IL-12p70 (ELISA)", "assay_type": "in vivo, ICR mice", "settings": "pCpGfree-Luc(0), 40 μg DNA", "protocol": "(§4) MENDs used in [Experimental Example 12] were each administered to 5-week-old male ICR mice from the tail vein in an amount corresponding to 40 μg DNA. 1, 3, 6, 24 hr later, the blood was collected from the heart, and TNF-α, IFN-γ, IL-12p70 were measured using Quantikine ELISA kit (R&D Systems)."}, "[6]": {"tested_on": "TNF-α", "experiment": "Cytokine production by MEND administration, TNF-α (ELISA)", "assay_type": "in vivo, ICR mice", "settings": "pCpGfree-Luc(0), 40 μg DNA", "protocol": "as §4"}, "[7]": {"tested_on": "IFN-γ", "experiment": "Cytokine production by MEND administration, IFN-γ (ELISA)", "assay_type": "in vivo, ICR mice", "settings": "pCpGfree-Luc(0), 40 μg DNA", "protocol": "as §4"}}, "note": "Entries after “also recorded” stand apart in the source; their conditions may differ.", "data": [{"smiles": "CC1=C(/C=C/C(C)=C/C=C/C(C)=C/C(=O)OCCCN(C)CCSSCCN(C)CCCOC(=O)/C=C(C)/C=C/C=C(C)/C=C/C2=C(C)CCCC2(C)C)C(C)(C)CCC1", "note": "[Example B-2-4]", "values": [{"measurement": "endosomal escape efficiency", "setting": "[1]", "result": "significantly higher endosomal escape efficiency than B-2"}, {"measurement": "gene expression activity (luciferase, RLU/2 min), time course", "setting": "[2]", "result": "significantly higher than that of MENDs formed from B-2-1 and DOTAP"}, {"measurement": "intracellular uptake amount (Cy5-labeled pDNA)", "setting": "[3]", "result": "low as compared to the MENDs using DOTAP; also recorded: more highly uptaken than B-2"}, {"measurement": "relative endosome amount", "setting": "[4]", "result": "significant decrease in endosome than the untreated group and the B-2 treatment group"}]}, {"smiles": "CCCCCCCCCCCCCC(=O)OCCCN(C)CCSSCCN(C)CCCOC(=O)CCCCCCCCCCCCC", "note": "[Example B-2]", "values": [{"measurement": "IL-12p70 blood concentration", "setting": "[5]", "result": "maintained the normal value at any time point"}, {"measurement": "gene expression activity (luciferase, RLU/2 min), time course", "setting": "[2]", "result": "equivalent to that of DOTAP"}, {"measurement": "TNF-α blood concentration", "setting": "[6]", "result": "maintained the normal value at any time point"}, {"measurement": "intracellular uptake amount (Cy5-labeled pDNA)", "setting": "[3]", "result": "low as compared to the MENDs using DOTAP"}, {"measurement": "IFN-γ blood concentration", "setting": "[7]", "result": "maintained the normal value at any time point"}]}]}
